The source of these data is patent US20250339399A1, “SUPRAMOLECULAR SELF-ASSEMBLY SYSTEM” (Beijing Creatron Institute of Pharmaceutical Research Co., …, priority 2022, published 2025).

For data set [1] the following is noted: cited from earlier work.
Data set [2] is described as follows: Binary (carrier), ternary and quaternary supramolecular self-assembly systems of polymer, carrier building block and target: guest concentration over incubation time (Examples 1-56). The data set is classed as physicochemical. The following applies: for Concentration of guest molecule in solution / Times that of the initial medium: 6 h. Here is the method: pH 2.0 hydrochloric acid, pH 4.5 acetate, and pH 6.5, pH 6.8, or pH 7.4 phosphate buffer solutions were prepared. The selection of each initial medium followed the principle that the solubility in the initial medium of the selected targets (or active ingredients) should low enough, but should meet the detection sensitivity and accuracy requirements of the corresponding analytical methods. Each buffer as initial media was placed in a 50 ml test tube with a stopper, shaken in a constant temperature air shaker at 37° C.±0.5° C., with an amplitude of 200 rpm, and incubated for 1 hour. […] Samples were taken at 0.5 h, 3 h and 6 h after incubation, centrifuged at 37° C., 13000 rpm for 5 minutes, and the supernatant was diluted at least 10 times with the mobile phase under the target analyte analytical method, filtered, the initial filtrate was discarded, and the continued filtrate was used as the test solution for injection analysis. The corresponding HPLC method under each target object item in Table 8 was used to determine the content of each target substance. When the solubility of the target in the initial medium is below the quantitative limit of the analytical method, a small amount of surfactant, such as sodium dodecyl sulfate (SDS), Tween20, or Tween80, can be added appropriately.
Experiments were conducted according to the steps in Comparative Example 1, and quantitative analysis was carried out using the analytical method for each target to investigate the regulation ability of each binary supramolecular self-assembly system built from 0.5% polymer and target on guest molecules stacking.
Ternary supramolecular self-assembly systems based on different polymers, carrier building blocks, and targets were built according to the experimental scheme in Table 12, to investigate the influence of synergistic regulation of the carrier building blocks and the polymers on the stacking of target molecules, as well as the stability of the supramolecular self-assembly systems jointly built by them over incubation time. The initial medium, quantitative analysis method, pre-treatment method, and initial theoretical concentration of the target, corresponding to each target molecule in the experiment, were consistent with those in Comparative Examples 1 and 2. After a target was added to the system, the target was uniformly dispersed by ultrasonication at 37° C. for half an hour and then shaken in a 37° C. constant temperature air shaker, and samples were collected after different incubation time, i.e. 0.5 h, 1 h, 2 h, 3 h, 4 h, and 6 h.

Data set [3] can be described thus: Binary supramolecular self-assembly systems of polymer and target: guest concentration over incubation time (Comparative Example 2). The data set is classed as physicochemical. The following applies: for Concentration of guest molecule in solution / Times that of the initial medium: 6 h. Here is the method: Experiments were conducted according to the steps in Comparative Example 1, and quantitative analysis was carried out using the analytical method for each target to investigate the regulation ability […] stacking.

A short description of data set [4]: Guest molecule concentration after incubation in initial medium without polymer (Comparative Example 1). The format is physicochemical. The following applies: 37° C. Summed up: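 Dissolved guest content measured by HPLC of centrifuged supernatants (37° C., 13000 rpm, 5 min) sampled at 0.5 h, 3 h and 6 h. Incubation was polymer-free at 37° C.±0.5° C. in buffers of pH 2.0-7.4; nominal loading was set by maximum clinical dose.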

Where [5] appears, read: binary: 310, % not stated at the place.
Where [6] appears, read: binary: 312, % not stated at the place.
Where [7] appears, read: binary system with 0.5% polymer 101, incubation 0.5 h.
The mark [8] stands for this setting: binary system with 0.5% polymer 101, incubation 3 h.
Setting [9] is: binary system with 0.5% polymer 101, incubation 6 h.
[10] abbreviates: binary system with 0.5% polymer 102, incubation 0.5 h.
Setting [11] is: binary system with 0.5% polymer 102, incubation 3 h.
Where [12] appears, read: binary system with 0.5% polymer 102, incubation 6 h.
Where [13] appears, read: binary system with 0.5% polymer 103, incubation 0.5 h.
Where [14] appears, read: binary system with 0.5% polymer 103, incubation 3 h.
Where [15] appears, read: binary system with 0.5% polymer 103, incubation 6 h.
Setting [16] is: binary system with 0.5% polymer 107, incubation 0.5 h.
Where [17] appears, read: binary system with 0.5% polymer 107, incubation 3 h.
[18] abbreviates: binary system with 0.5% polymer 107, incubation 6 h.

Consider `COc1ccc(-n2nc(C(N)=O)c3c2C(=O)N(c2ccc(N4CCCCC4=O)cc2)CC3)cc1` [Apixaban], for which the LogP entry in data set [1] is “LogP 1.83”. Also, the “Concentration of guest molecule in solution” value (“Concentration … in solution” for short) in data set [2] (binary, no polymer: 0.5% 301) turned out to be 366.6 µg/mL; in data set [2] (setting [5]), 300.0 µg/mL; in data set [2] (setting [6]), 397.9 µg/mL; in data set [2] (ternary: 102H (0.25% where stated) + 301, carrier % not stated), 334.8 µg/mL; in data set [2] (ternary: 102H (0.25% where stated) + 302, carrier % not stated), 312.6 µg/mL; in data set [3] (binary: 0.25% 102H), 127.7 µg/mL. The “Concentration … in solution” value in data set [3] (binary: 0.25% 103E5) was 114.6 µg/mL; in data set [3] (binary: 0.5% 102H), 327.6 µg/mL. Moreover, the “Times that of the initial medium” value in data set [2] (binary, no polymer: 0.5% 301) is listed as 7.5 times; in data set [2] (setting [5]), 6.3 times; in data set [2] (setting [6]), 8.2 times; in data set [3] (binary: 0.25% 102H), 2.7 times; in data set [3] (binary: 0.25% 103E5), 2.4 times; in data set [3] (binary: 0.5% 102H), 6.7 times. Further, in data set [2] (ternary: 102H + 313 or 318), the “Encapsulation rate for the guest molecule” value is on record as about 100%. Also, the “Concentration of guest molecule measured after different incubated time” value (“Concentration … after different incubated time” below) is 49.8 µg/mL in data set [4] (0.5 h, pH 6.8 phosphate buffer); 48.7 µg/mL in data set [4] (3 h, pH 6.8 phosphate buffer); 48.0 µg/mL in data set [4] (6 h, pH 6.8 phosphate buffer).

Take `O=C(O)[C@H]1O[C@@H](Oc2cc3oc(-c4ccc(O)cc4)cc(=O)c3c(O)c2O)[C@H](O)[C@@H](O)[C@@H]1O` [Scutellarin, scutellarin]: the “LogD7.4 or Log P” value in data set [1] is 0.80. Also, the “Concentration of the target in the solution measured after different incubation time” value (“Concentration … after different incubation time” below) in data set [3] (setting [7]) was 210.4 µg/mL; in data set [3] (setting [8]), 125.2 µg/mL; in data set [3] (setting [9]) it was 110.2 µg/mL; in data set [3] (setting [10]), 122.5 µg/mL; in data set [3] (setting [11]), 102.0 µg/mL; in data set [3] (setting [12]) it was 102.2 µg/mL. In addition, the “Concentration … after different incubation time” value in data set [3] (setting [13]) is 40.4 µg/mL; in data set [3] (setting [14]), 42.8 µg/mL; in data set [3] (setting [15]), 42.8 µg/mL; in data set [3] (binary system with 0.5% polymer 106, incubation 0.5 h), 57.4 µg/mL; in data set [3] (binary system with 0.5% polymer 106, incubation 3 h), 60.8 µg/mL; in data set [3] (binary system with 0.5% polymer 106, incubation 6 h), 54.3 µg/mL. Further, the “Concentration … after different incubation time” value in data set [3] (setting [16]) is 61.7 µg/mL; in data set [3] (setting [17]), 41.7 µg/mL; in data set [3] (setting [18]), 43.1 µg/mL; in data set [3] (binary system with 0.5% polymer 110, incubation 0.5 h), 95.9 µg/mL; in data set [3] (binary system with 0.5% polymer 110, incubation 3 h) it was 87.3 µg/mL; in data set [3] (binary system with 0.5% polymer 110, incubation 6 h), 78.3 µg/mL. Besides, the “Concentration … after different incubated time” value in data set [4] (0.5 h, pH 6.8 phosphate buffer) is 45.3 µg/mL; in data set [4] (3 h, pH 6.8 phosphate buffer) it was 41.7 µg/mL; in data set [4] (6 h, pH 6.8 phosphate buffer), 43.1 µg/mL.

For the compound `CC(C)OC(=O)CCC/C=C\C[C@@H]1[C@@H](/C=C/C(F)(F)COc2ccccc2)[C@H](O)C[C@@H]1O` [Tafluprost, tafluprost], the “LogD7.4 or Log P” value in data set [1] is on record as 4.25. Also, in data set [1] (prost derivatives, Table 31 (relevant information)), the “Log P” value is listed as “Log P:4.29 D-H: 2 R-H:4”. The “Concentration … after different incubation time” value in data set [3] (setting [7]) was 57.6 µg/mL; in data set [3] (setting [8]), 44.8 µg/mL; in data set [3] (setting [9]), 23.1 µg/mL; in data set [3] (setting [10]) it was 52.9 µg/mL; in data set [3] (setting [11]), 66.1 µg/mL; in data set [3] (setting [12]) it was 67.3 µg/mL. For the same compound, the “Concentration … after different incubation time” value in data set [3] (setting [13]) turned out to be 14.6 µg/mL; in data set [3] (setting [14]), 23.1 µg/mL; in data set [3] (setting [15]), 27.4 µg/mL; in data set [3] (binary system with 0.5% polymer 104, incubation 0.5 h), 26.7 µg/mL; in data set [3] (binary system with 0.5% polymer 104, incubation 3 h), 24.2 µg/mL; in data set [3] (binary system with 0.5% polymer 104, incubation 6 h), 17.3 µg/mL. The “Concentration … after different incubation time” value in data set [3] (setting [16]) amounted to 34.5 µg/mL; in data set [3] (setting [17]), 36.8 µg/mL; in data set [3] (setting [18]) it was 35.2 µg/mL. Besides, in data set [3] (binary: 0.25% 102H), the “Concentration … in solution” value amounted to 67.3 µg/mL. The “Concentration … after different incubated time” value in data set [4] (0.5 h, pH 7.4 phosphate buffer) was 18.6 µg/mL; in data set [4] (3 h, pH 7.4 phosphate buffer) it was 9.3 µg/mL; in data set [4] (6 h, pH 7.4 phosphate buffer) it was 6.8 µg/mL.
